Measurements from patent US11680060B2, “Bicycloheptane pyrrolidine orexin receptor agonists” (Merck Sharp & Dohme LLC, priority 2020, dated 2023).

Molecular target: human OX2R (Homo sapiens (Human), UniProt O43614)
Assay: IPOne (IP-1) assay in CHO cells expressing human OX2R
Type: cell-based
Conditions: CHO, percentage of mean max effect of a reference compound at 1 uM (100% activity by comparison to Orexin A), human OX2R; read-out: Emax (%)
Outline: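 CHO cells stably expressing human OX2R were stimulated with compound (10-point ½-log dilutions) for 2 h at 37 °C. IP-1 accumulation was read by HTRF (IP-One, 665/620 nm). EC50 from a four-parameter fit; % effect relative to 1 μM reference agonist control.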

Chain of human OX2R (O43614 whole entry): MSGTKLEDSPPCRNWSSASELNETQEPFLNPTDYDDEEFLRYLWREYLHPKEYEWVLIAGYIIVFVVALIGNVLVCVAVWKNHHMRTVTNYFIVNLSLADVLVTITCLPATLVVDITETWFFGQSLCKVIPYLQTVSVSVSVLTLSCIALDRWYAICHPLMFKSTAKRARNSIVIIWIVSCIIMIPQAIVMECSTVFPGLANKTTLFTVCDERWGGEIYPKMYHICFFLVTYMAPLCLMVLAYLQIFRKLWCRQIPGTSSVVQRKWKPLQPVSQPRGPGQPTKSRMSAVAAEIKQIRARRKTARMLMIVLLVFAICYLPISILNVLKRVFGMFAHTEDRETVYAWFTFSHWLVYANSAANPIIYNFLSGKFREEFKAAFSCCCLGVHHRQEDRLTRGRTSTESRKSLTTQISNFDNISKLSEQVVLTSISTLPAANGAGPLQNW

Row | Emax | SMILES
1 | 98.5% | CC(C)OC(=O)N1[C@H](C)C[C@H](NS(=O)(=O)CF)[C@@H]1COC1CCC2(c3ncc(F)cn3)CC2C1 (stereo partly drawn) [Example 111, isopropyl (2R,3S,5R)-3-((fluoromethyl)sulfonamido)-2-(((6-(5-fluoropyrimidin-2-yl)bicyclo[4.1.0]heptan-3-yl)oxy)methyl)-5-methylpyrrolidine-1-carboxylate]
2 | 102% | COC(=O)N1[C@H](C(F)F)C[C@H](NS(=O)(=O)C2CC2)[C@@H]1COC1CCC2(c3ncc(F)cn3)CC2C1 (stereo partly drawn) [Example 116, methyl (2R,3S,5S)-3-(cyclopropanesulfonamido)-5-(difluoromethyl)-2-(((6-(5-fluoropyrimidin-2-yl)bicyclo[4.1.0]heptan-3-yl)oxy)methyl)pyrrolidine-1-carboxylate]
3 | 101% | CCS(=O)(=O)N[C@H]1C[C@@H](C(F)F)N(C(=O)OC)[C@H]1COC1CCC2(c3ncc(F)cn3)CC2C1 (stereo partly drawn) [Example 117, methyl (2R,3S,5S)-5-(difluoromethyl)-3-(ethylsulfonamido)-2-(((6-(5-fluoropyrimidin-2-yl)bicyclo[4.1.0]heptan-3-yl)oxy)methyl)pyrrolidine-1-carboxylate]
4 | 100% | CC(C)OC(=O)N1[C@H](C(F)F)C[C@H](NS(C)(=O)=O)[C@@H]1CO[C@H]1CC[C@@]2(c3ncc(F)cn3)C[C@H]2C1 [Example 119, isopropyl (2R,3S,5S)-5-(difluoromethyl)-2-((((1S,3S,6R)-6-(5-fluoropyrimidin-2-yl)bicyclo[4.1.0]heptan-3-yl)oxy)methyl)-3-(methylsulfonamido)pyrrolidine-1-carboxylate]
5 | 102% | COC(=O)N1[C@H](C(F)F)C[C@H](NS(=O)(=O)C(C)C)[C@@H]1COC1CCC2(c3ncc(F)cn3)CC2C1 (stereo partly drawn) [Example 120, methyl (2R,3S,5S)-5-(difluoromethyl)-2-(((6-(5-fluoropyrimidin-2-yl)bicyclo[4.1.0]heptan-3-yl)oxy)methyl)-3-((1-methylethyl)sulfonamido)pyrrolidine-1-carboxylate]
6 | 108% | CC(C)OC(=O)N1CCC[C@H](NS(=O)(=O)C(F)F)[C@@H]1CO[C@H]1CC[C@@]2(c3ncc(F)cn3)C[C@H]2C1 [Example 121, isopropyl (2R,3S)-3-((difluoromethyl)sulfonamido)-2-((((1S,3S,6R)-6-(5-fluoropyrimidin-2-yl)bicyclo[4.1.0]heptan-3-yl)oxy)methyl)piperidine-1-carboxylate]
7 | 104% | CC(C)OC(=O)N1CCC[C@H](NS(=O)(=O)C2CC2)[C@@H]1COC1CCC2(c3ncc(F)cn3)CC2C1 (stereo partly drawn) [Example 122, isopropyl (2R,3S)-3-(cyclopropanesulfonamido)-2-(((6-(5-fluoropyrimidin-2-yl)bicyclo[4.1.0]heptan-3-yl)oxy)methyl)piperidine-1-carboxylate]
8 | 102% | CC(C)OC(=O)N1CCC[C@H](NS(=O)(=O)C(F)(F)F)[C@@H]1COC1CC[C@@]2(c3ncc(F)cn3)CC2C1 (stereo partly drawn) [Example 123, isopropyl (2R,3S)-2-(((6-(5-fluoropyrimidin-2-yl)bicyclo[4.1.0]heptan-3-yl)oxy)methyl)-3-((trifluoromethyl)sulfonamido)piperidine-1-carboxylate]
9 | 104% | CCS(=O)(=O)N[C@H]1CCCN(C(=O)OC(C)C)[C@H]1COC1CC[C@@]2(c3ncc(F)cn3)CC2C1 (stereo partly drawn) [Example 126, isopropyl (2R,3S)-3-(ethylsulfonamido)-2-(((6-(5-fluoropyrimidin-2-yl)bicyclo[4.1.0]heptan-3-yl)oxy)methyl)piperidine-1-carboxylate]
10 | 100% | COC(=O)N1[C@@H]2CCC[C@@H]2[C@H](NS(=O)(=O)C2CC2)[C@@H]1COC1CCC2(c3ncc(F)cn3)CC2C1 (stereo partly drawn) [Example 128, methyl (2R,3S,3aS,6aR)-3-(cyclopropanesulfonamido)-2-(((6-(5-fluoropyrimidin-2-yl)bicyclo[4.1.0]heptan-3-yl)oxy)methyl)hexahydrocyclopenta[b]pyrrole-1(2H)-carboxylate]
